Measured values reported in patent US20260297121A1, “MITHRAMYCIN (MTM) 2’ OXIMES” (University of Kentucky Research Foundation, priority 2023, published 2026).

Assays:
[1] = tested on: TC32 cells; assay: Potency IC50 in TC32 cells and selectivity; type: cell-based; conditions: Homo sapiens, TC-32, Table 2, read-out: IC50 TC32
Description: (§1) Exemplary compounds of the presently-disclosed subject matter were assessed for activity, including clearance, potency, and selectivity. Results from studies are compiled in Tables 2-4.
(§2) Desirable clearance was identified at lower values of mL hr^−1kg^−1 (e.g., about ≤10 mL hr^−1 kg^−1), desirable potency was identified at lower values of IC50 (e.g., about ≤10 nM in TC32 cells), and desired selectivity was identified at higher ratios of IC50 in PC3/IC50 in TC32 (e.g. about >10).

[2] = log P; type: physicochemical
[3] = tested on: PC3; assay: IC50 in PC3 cells; type: cell-based; conditions: Homo sapiens, PC-3, read-out: IC50 PC2, Table 2; head prints PC2, text PC3
Description: as §1, §2

[4] = Clearance (CL) / pharmacokinetics; type: in vivo, mice; conditions: Table 2
Description: as §1, §2
Pharmacokinetics of exemplary compounds of the presently-disclosed subject matter were studied in mice following bolus IV dosing. Groups of three mice were administered the compound(s) and blood samples were collected via saphenous bleed. Plasma was separated by centrifugation and extracted to quantitate analytes by LC/MS/MS. Sample analysis followed upon the system meeting system suitability criteria customary for fit for purpose analytical methods. FIG. 1A includes data comparing YL-C09 to mithramycin (MTM) dosed separately. FIG. 1B includes data for YL-B171, YL-C110 and MTM dosed in cassette format.

SMILES | IC50 [1] [nM] | logP ([2]; Table 2) | IC50 [3] [nM] | CL [4] [mL/min/kg] | log P ([2]; Table 2) | log P ([2]; Table 3)
COC(C(=NOCC(=O)Nc1cccc2cnccc12)C(O)C(C)O)C1Cc2cc3cc(OC4CC(OC5CC(O)C(O)C(C)O5)C(O)C(C)O4)c(C)c(O)c3c(O)c2C(=O)C1OC1CC(OC2CC(OC3CC(C)(O)C(O)C(C)O3)C(O)C(C)O2)C(O)C(C)O1 (stereo not shown) [YL-B160] | 86.1 | 1.3 | 1130 |  |  | 
COC(C(=NOCCNC(=O)c1cc2cc(O)ccc2[nH]1)C(O)C(C)O)C1Cc2cc3cc(OC4CC(OC5CC(O)C(O)C(C)O5)C(O)C(C)O4)c(C)c(O)c3c(O)c2C(=O)C1OC1CC(OC2CC(OC3CC(C)(O)C(O)C(C)O3)C(O)C(C)O2)C(O)C(C)O1 (stereo not shown) [YL-B170] | 70.7 | 1.02 | 365 |  |  | 
COC(C(=NOCCNC(=O)c1cc2cc(C(F)(F)F)ccc2[nH]1)C(O)C(C)O)C1Cc2cc3cc(OC4CC(OC5CC(O)C(O)C(C)O5)C(O)C(C)O4)c(C)c(O)c3c(O)c2C(=O)C1OC1CC(OC2CC(OC3CC(C)(O)C(O)C(C)O3)C(O)C(C)O2)C(O)C(C)O1 (stereo not shown) [YL-B175] | 1.2 | 2.54 | 1.5 |  |  | 
COC(C(=NOCCNC(=O)c1cc2c(=O)n(C)c(=O)n(C)c2[nH]1)C(O)C(C)O)C1Cc2cc3cc(OC4CC(OC5CC(O)C(O)C(C)O5)C(O)C(C)O4)c(C)c(O)c3c(O)c2C(=O)C1OC1CC(OC2CC(OC3CC(C)(O)C(O)C(C)O3)C(O)C(C)O2)C(O)C(C)O1 (stereo not shown) [YL-B179] | 679 | -0.02 | 3000 |  |  | 
CO[C@H](C(=NOCC(=O)N[C@@H](Cc1c[nH]c2ccccc12)C(=O)Nc1ccc2scnc2c1)[C@@H](O)[C@@H](C)O)[C@@H]1Cc2cc3cc(O[C@H]4C[C@@H](O[C@H]5C[C@@H](O)[C@H](O)[C@@H](C)O5)[C@H](O)[C@@H](C)O4)c(C)c(O)c3c(O)c2C(=O)[C@H]1O[C@H]1C[C@@H](O[C@H]2C[C@@H](O[C@H]3C[C@](C)(O)[C@H](O)[C@@H](C)O3)[C@@H](O)[C@@H](C)O2)[C@H](O)[C@@H](C)O1 [YL-C39] |  |  |  |  | 2.56 | 
CO[C@H](C(=NOC[C@@H](Cc1c[nH]c2ccccc12)NC(=O)c1ccc2scnc2c1)[C@@H](O)[C@@H](C)O)[C@@H]1Cc2cc3cc(O[C@H]4C[C@@H](O[C@H]5C[C@@H](O)[C@H](O)[C@@H](C)O5)[C@H](O)[C@@H](C)O4)c(C)c(O)c3c(O)c2C(=O)[C@H]1O[C@H]1C[C@@H](O[C@H]2C[C@@H](O[C@H]3C[C@](C)(O)[C@H](O)[C@@H](C)O3)[C@@H](O)[C@@H](C)O2)[C@H](O)[C@@H](C)O1 [YL-C53] |  |  |  |  | 3.26 | 
COC(C(=NOCC(Cc1c[nH]c2ccccc12)NC(=O)c1cc2cc(Cl)ccc2[nH]1)C(O)C(C)O)C1Cc2cc3cc(OC4CC(OC5CC(O)C(O)C(C)O5)C(O)C(C)O4)c(C)c(O)c3c(O)c2C(=O)C1OC1CC(OC2CC(OC3CC(C)(O)C(O)C(C)O3)C(O)C(C)O2)C(O)C(C)O1 (stereo not shown) [YL-C54] |  |  |  |  | 4.34 | 
COC(C(=NOCC(Cc1c[nH]c2ccccc12)NC(=O)c1ccc2scnc2c1)C(O)C(C)O)C1Cc2cc3cc(OC4CC(OC5CC(O)C(O)C(C)O5)C(O)C(C)O4)c(C)c(O)c3c(O)c2C(=O)C1OC1CC(OC2CC(OC3CC(C)(O)C(O)C(C)O3)C(O)C(C)O2)C(O)C(C)O1 (stereo not shown) [YL-C55] |  |  |  |  | 3.26 | 
CO[C@H](C(=NOCCNC(=O)c1c(-c2ccc(Cl)cc2)c2cc(Cl)ccc2n1C)[C@@H](O)[C@@H](C)O)[C@@H]1Cc2cc3cc(O[C@H]4C[C@@H](O[C@H]5C[C@@H](O)[C@H](O)[C@@H](C)O5)[C@H](O)[C@@H](C)O4)c(C)c(O)c3c(O)c2C(=O)[C@H]1O[C@H]1C[C@@H](O[C@H]2C[C@@H](O[C@H]3C[C@](C)(O)[C@H](O)[C@@H](C)O3)[C@@H](O)[C@@H](C)O2)[C@H](O)[C@@H](C)O1 [YL-C98] |  |  |  |  | 4.6 | 
COC(C(=NOCCNC(=O)c1c(-c2ccc(Cl)cc2)c2cc(Cl)ccc2n1CC(C)C)C(O)C(C)O)C1Cc2cc3cc(OC4CC(OC5CC(O)C(O)C(C)O5)C(O)C(C)O4)c(C)c(O)c3c(O)c2C(=O)C1OC1CC(OC2CC(OC3CC(C)(O)C(O)C(C)O3)C(O)C(C)O2)C(O)C(C)O1 (stereo not shown) [YL-C100] |  |  |  |  | 6.21 | 
COC(C(=NOCCNC(=O)c1[nH]c2ccc(Cl)cc2c1-c1ccc(F)c(Cl)c1)C(O)C(C)O)C1Cc2cc3cc(OC4CC(OC5CC(O)C(O)C(C)O5)C(O)C(C)O4)c(C)c(O)c3c(O)c2C(=O)C1OC1CC(OC2CC(OC3CC(C)(O)C(O)C(C)O3)C(O)C(C)O2)C(O)C(C)O1 (stereo not shown) [YL-C116] |  |  |  |  | 4.19 | 4.19

Continued, in another order:

IC50 [1] [nM] | logP ([2]; Table 2) | IC50 [3] [nM] | CL [4] [mL/min/kg] | SMILES | log P ([2]; Table 2) | log P ([2]; Table 3)
35.6 | 1.28 | 300 |  | COc1cc2cc(C(=O)NCCON=C([C@@H](O)[C@@H](C)O)[C@@H](OC)[C@@H]3Cc4cc5cc(O[C@H]6C[C@@H](O[C@H]7C[C@@H](O)[C@H](O)[C@@H](C)O7)[C@H](O)[C@@H](C)O6)c(C)c(O)c5c(O)c4C(=O)[C@H]3O[C@H]3C[C@@H](O[C@H]4C[C@@H](O[C@H]5C[C@](C)(O)[C@H](O)[C@@H](C)O5)[C@@H](O)[C@@H](C)O4)[C@H](O)[C@@H](C)O3)[nH]c2cc1OC [YL-B158] |  | 
2840 | -0.56 | 3000 |  | CO[C@H](C(=NOCCNC(=O)c1nnc2nc(C)cc(C)n12)[C@@H](O)[C@@H](C)O)[C@@H]1Cc2cc3cc(O[C@H]4C[C@@H](O[C@H]5C[C@@H](O)[C@H](O)[C@@H](C)O5)[C@H](O)[C@@H](C)O4)c(C)c(O)c3c(O)c2C(=O)[C@H]1O[C@H]1C[C@@H](O[C@H]2C[C@@H](O[C@H]3C[C@](C)(O)[C@H](O)[C@@H](C)O3)[C@@H](O)[C@@H](C)O2)[C@H](O)[C@@H](C)O1 [YL-B162] |  | 
2.33 | 1.56 | 32.3 |  | COc1ccc2[nH]c(C(=O)NCCON=C([C@@H](O)[C@@H](C)O)[C@@H](OC)[C@@H]3Cc4cc5cc(O[C@H]6C[C@@H](O[C@H]7C[C@@H](O)[C@H](O)[C@@H](C)O7)[C@H](O)[C@@H](C)O6)c(C)c(O)c5c(O)c4C(=O)[C@H]3O[C@H]3C[C@@H](O[C@H]4C[C@@H](O[C@H]5C[C@](C)(O)[C@H](O)[C@@H](C)O5)[C@@H](O)[C@@H](C)O4)[C@H](O)[C@@H](C)O3)cc2c1 [YL-B166] |  | 
15.1 | 2.83 | 48.4 |  | CO[C@H](C(=NOCCNC(=O)c1cc2cc(Cl)cc(Cl)c2[nH]1)[C@@H](O)[C@@H](C)O)[C@@H]1Cc2cc3cc(O[C@H]4C[C@@H](O[C@H]5C[C@@H](O)[C@H](O)[C@@H](C)O5)[C@H](O)[C@@H](C)O4)c(C)c(O)c3c(O)c2C(=O)[C@H]1O[C@H]1C[C@@H](O[C@H]2C[C@@H](O[C@H]3C[C@](C)(O)[C@H](O)[C@@H](C)O3)[C@@H](O)[C@@H](C)O2)[C@H](O)[C@@H](C)O1 [YL-B167] |  | 
69.8 | 2.1 | 1020 |  | CO[C@H](C(=NOCCNC(=O)c1cc2cc(-c3cnn(C)c3)ccc2[nH]1)[C@@H](O)[C@@H](C)O)[C@@H]1Cc2cc3cc(O[C@H]4C[C@@H](O[C@H]5C[C@@H](O)[C@H](O)[C@@H](C)O5)[C@H](O)[C@@H](C)O4)c(C)c(O)c3c(O)c2C(=O)[C@H]1O[C@H]1C[C@@H](O[C@H]2C[C@@H](O[C@H]3C[C@](C)(O)[C@H](O)[C@@H](C)O3)[C@@H](O)[C@@H](C)O2)[C@H](O)[C@@H](C)O1 [YL-C20] |  | 
6.41 | 1.87 | 8.07 |  | CO[C@H](C(=NOCc1ccc2scnc2c1)[C@@H](O)[C@@H](C)O)[C@@H]1Cc2cc3cc(O[C@H]4C[C@@H](O[C@H]5C[C@@H](O)[C@H](O)[C@@H](C)O5)[C@H](O)[C@@H](C)O4)c(C)c(O)c3c(O)c2C(=O)[C@H]1O[C@H]1C[C@@H](O[C@H]2C[C@@H](O[C@H]3C[C@](C)(O)[C@H](O)[C@@H](C)O3)[C@@H](O)[C@@H](C)O2)[C@H](O)[C@@H](C)O1 [YL-C52] |  | 
64.3 | 1.12 | 214 |  | CO[C@H](C(=NOCCNC(=O)c1ccc2scnc2c1)[C@@H](O)[C@@H](C)O)[C@@H]1Cc2cc3cc(O[C@H]4C[C@@H](O[C@H]5C[C@@H](O)[C@H](O)[C@@H](C)O5)[C@H](O)[C@@H](C)O4)c(C)c(O)c3c(O)c2C(=O)[C@H]1O[C@H]1C[C@@H](O[C@H]2C[C@@H](O[C@H]3C[C@](C)(O)[C@H](O)[C@@H](C)O3)[C@@H](O)[C@@H](C)O2)[C@H](O)[C@@H](C)O1 [YL-C61] |  | 
 |  |  | 0.467 | COc1ccc2[nH]c(C(=O)NCCON=C([C@@H](O)[C@@H](C)O)[C@@H](OC)[C@@H]3Cc4cc5cc(O[C@H]6C[C@@H](O[C@H]7C[C@@H](O)[C@H](O)[C@@H](C)O7)[C@H](O)[C@@H](C)O6)c(C)c(O)c5c(O)c4C(=O)[C@H]3O[C@H]3C[C@@H](O[C@H]4C[C@@H](O[C@H]5C[C@](C)(O)[C@H](O)[C@@H](C)O5)[C@@H](O)[C@@H](C)O4)[C@H](O)[C@@H](C)O3)c(-c3ccc(Cl)cc3)c2c1 [YL-C114] | 3.58 | 
22.4 | 3.06 | 169 |  | CO[C@H](C(=NOCCNC(=O)c1[nH]c2ccc(Cl)cc2c1C1CC1)[C@@H](O)[C@@H](C)O)[C@@H]1Cc2cc3cc(O[C@H]4C[C@@H](O[C@H]5C[C@@H](O)[C@H](O)[C@@H](C)O5)[C@H](O)[C@@H](C)O4)c(C)c(O)c3c(O)c2C(=O)[C@H]1O[C@H]1C[C@@H](O[C@H]2C[C@@H](O[C@H]3C[C@](C)(O)[C@H](O)[C@@H](C)O3)[C@@H](O)[C@@H](C)O2)[C@H](O)[C@@H](C)O1 [YL-C124] |  | 
